Measurements published in patent US6642392B1 (priority 1997, dated 2003).
Where two headings read alike, the source gives them in different places.

Legend:
Type in all cases: in vivo
[1] = tested on: Phytophthora infestans; details: for Test D disease control rating: tomato late blight; for Test D disease control rating (100 = 100% disease control, 0 = no disease control): tomato seedlings sprayed to run-off, inoculated the following day, rating relative to controls, unmarked compounds (standard test rate)
[2] = tested on: Botrytis cinerea; experiment: Test E: gray mold, preventive spray on cucumber seedlings; details: for Test E disease control rating: gray mold on cucumber; for Test E disease control rating (100 = 100% disease control, 0 = no disease control): cucumber seedlings sprayed to run-off, inoculated the following day, rating relative to controls, unmarked compounds (standard test rate)
Summary of the method: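 Preventive spray on cucumber seedlings used a suspension (3% acetone, 250 ppm Trem 014), applied to run-off one day before inoculation with Botrytis cinerea spores. Plants were held 48 h at 20° C in saturated air, then 5 days at 20° C. Percent disease control was scored relative to untreated plants.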

[3] = tested on: Eiysiphe graminis f. sp. tritici; experiment: Test A: wheat powdery mildew, preventive spray on wheat seedlings; details: for Test A disease control rating: wheat powdery mildew; for Test A disease control rating (100 = 100% disease control, 0 = no disease control): wheat seedlings sprayed to run-off, inoculated the following day, rating relative to controls, unmarked compounds (standard test rate)
Summary of the method: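 Preventive test: seedlings inoculated with powdery mildew spores one day after run-off spraying of a suspension. Ratings after 7 days in a 20° C growth chamber express percent disease control versus controls.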

[4] = tested on: Pyricularia oryzae; details: for Test C disease control rating: rice blast; for Test C disease control rating (100 = 100% disease control, 0 = no disease control): rice seedlings sprayed to run-off, inoculated the following day, rating relative to controls, unmarked compounds (standard test rate)
[5] = tested on: Puccinia recondita; experiment: Test B: wheat leaf rust, preventive spray on wheat seedlings; details: for Test B disease control rating: wheat leaf rust; for Test B disease control rating (100 = 100% disease control, 0 = no disease control): wheat seedlings sprayed to run-off, inoculated the following day, rating relative to controls, unmarked compounds (standard test rate)
Summary of the method: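 Preventive test: P. recondita spores were applied one day after a run-off spray of compound suspension on wheat seedlings. Plants had 24 h at 20 °C in saturated air plus 6 days in a 20 °C growth chamber. Scoring is % disease control (100 = full) relative to controls.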

[6] = 100 = 100% disease control, 0 = no control, unmarked entries (standard test concentration)
[7] = 100 = 100% disease control, 0 = no control relative to controls, unmarked entries (standard test concentration)

C=CCc1cccc(C#N)c1OCC(C)NC(=O)C(C#N)C(C)(C)C (mixture of isomers) [compound 204]
Test D disease control rating [1, 6]: 0% | Test E disease control rating [2, 6]: 0% | Test A disease control rating [3, 7]: 0% | Test C disease control rating [4, 6]: 74% | Test B disease control rating [5, 6]: 0%

CC(C(C#N)C(=O)NCC=Cc1cccc(Br)c1)C(C)(C)C (mixture of isomers) [compound 76]
Test D disease control rating ([1]; tested at 40 ppm): 19% | Test E disease control rating ([2]; tested at 40 ppm): 0% | Test A disease control rating ([3]; tested at 40 ppm): 0% | Test C disease control rating ([4]; tested at 40 ppm): 0% | Test B disease control rating ([5]; tested at 40 ppm): 0%

CCC1(C(=O)NC(C)COc2ccc(F)c(Cl)c2)C(C)C1(Cl)Cl (stereo not shown) [compound 232]
Test D disease control rating (100 = 100% disease control, 0 = no disease control) [1]: 35% | Test E disease control rating (100 = 100% disease control, 0 = no disease control) [2]: 69% | Test A disease control rating (100 = 100% disease control, 0 = no disease control) [3]: 62% | Test C disease control rating (100 = 100% disease control, 0 = no disease control) [4]: 100% | Test B disease control rating (100 = 100% disease control, 0 = no disease control) [5]: 0%

CCC1(C(=O)NC(C)C=Cc2ccc(Cl)cc2Cl)C(C)C1(Cl)Cl (stereo not shown) [compound 266]
Test D disease control rating (100 = 100% disease control, 0 = no disease control) [1]: 74% | Test E disease control rating (100 = 100% disease control, 0 = no disease control) [2]: 0% | Test A disease control rating (100 = 100% disease control, 0 = no disease control) [3]: 63% | Test C disease control rating (100 = 100% disease control, 0 = no disease control) [4]: 91% | Test B disease control rating (100 = 100% disease control, 0 = no disease control) [5]: 0%

CCC1(C(=O)NC(C)COc2ccccc2C)C(C)C1(Cl)Cl (mixture of isomers) [compound 95]
Test D disease control rating ([1]; tested at 40 ppm): 0% | Test E disease control rating ([2]; tested at 40 ppm): 0% | Test A disease control rating ([3]; tested at 40 ppm): 52% | Test C disease control rating ([4]; tested at 40 ppm): 94% | Test B disease control rating ([5]; tested at 40 ppm): 86%

C[C@H](COc1cccc(I)c1)NC(=O)C(C#N)C(C)(C)C (single isomer, unassigned) [12b]
Test D disease control rating [1, 6]: 68% | Test E disease control rating [2, 6]: 0% | Test A disease control rating [3, 7]: 77% | Test C disease control rating [4, 6]: 94% | Test B disease control rating [5, 6]: 0%

CC(COc1cc(F)ccc1Cl)NC(=O)C(C#N)C(C)(C)C (mixture of isomers) [191c]
Test D disease control rating [1, 6]: 23% | Test E disease control rating [2, 6]: 0% | Test A disease control rating [3, 7]: 86% | Test C disease control rating [4, 6]: 100% | Test B disease control rating [5, 6]: 0%

CCC1(C(=O)NC(C)COc2cccc(Cl)c2Cl)C(C)C1(Cl)Cl (stereo not shown) [compound 111]
Test D disease control rating ([1]; tested at 40 ppm): 90% | Test E disease control rating ([2]; tested at 40 ppm): 0% | Test A disease control rating ([3]; tested at 40 ppm): 90% | Test C disease control rating ([4]; tested at 40 ppm): 0% | Test B disease control rating ([5]; tested at 40 ppm): 0%

CCC1(C(=O)NCCOc2ccccc2)C(C)C1(Cl)Cl (stereo not shown) [compound 153]
Test D disease control rating [1, 6]: 92% | Test E disease control rating [2, 6]: 0% | Test A disease control rating [3, 7]: 92% | Test C disease control rating [4, 6]: 94% | Test B disease control rating [5, 6]: 64%

CC(COc1ccccc1Cl)NC(=O)C(C#N)C(C)C(C)(C)C (mixture of isomers) [compound 58]
Test D disease control rating ([1]; tested at 40 ppm): 0% | Test E disease control rating ([2]; tested at 40 ppm): 0% | Test A disease control rating ([3]; tested at 40 ppm): 57% | Test C disease control rating ([4]; tested at 40 ppm): 52% | Test B disease control rating ([5]; tested at 40 ppm): 0%

CC(COc1ccccc1)NC(=O)C(C#N)C(C)C(C)(C)C (mixture of isomers) [compound 56]
Test D disease control rating ([1]; tested at 40 ppm): 0% | Test E disease control rating ([2]; tested at 40 ppm): 0% | Test A disease control rating ([3]; tested at 40 ppm): 74% | Test C disease control rating ([4]; tested at 40 ppm): 85% | Test B disease control rating ([5]; tested at 40 ppm): 0%

C[C@H](COc1ccc(F)cc1Cl)NC(=O)C(C#N)C(C)(C)C (single isomer, unassigned) [37b]
Test D disease control rating [1, 6]: 96% | Test E disease control rating [2, 6]: 0% | Test A disease control rating [3, 7]: 77% | Test C disease control rating [4, 6]: 99% | Test B disease control rating [5, 6]: 68%

CCC1(C(=O)NC(C)COc2c(F)cccc2F)C(C)C1(Cl)Cl (stereo not shown) [105b]
Test D disease control rating ([1]; tested at 40 ppm): 0% | Test E disease control rating ([2]; tested at 40 ppm): 0% | Test A disease control rating ([3]; tested at 40 ppm): 21% | Test C disease control rating ([4]; tested at 40 ppm): 74% | Test B disease control rating ([5]; tested at 40 ppm): 0%

CC(COc1cccc(I)c1C#N)NC(=O)C(C#N)C(C)(C)C (mixture of isomers) [compound 45]
Test D disease control rating [1, 6]: 0% | Test E disease control rating [2, 6]: 0% | Test A disease control rating [3, 7]: 0% | Test C disease control rating [4, 6]: 86% | Test B disease control rating [5, 6]: 0%

CCC1(C(=O)NC(C)COc2cc(I)ccc2C#N)C(C)C1(Cl)Cl (stereo not shown) [compound 247]
Test D disease control rating (100 = 100% disease control, 0 = no disease control) [1]: 0% | Test E disease control rating (100 = 100% disease control, 0 = no disease control) [2]: 0% | Test A disease control rating (100 = 100% disease control, 0 = no disease control) [3]: 53% | Test C disease control rating (100 = 100% disease control, 0 = no disease control) [4]: 85% | Test B disease control rating (100 = 100% disease control, 0 = no disease control) [5]: 0%

CC(COc1ccccc1SC(F)(F)C(F)F)NC(=O)C(C#N)C(C)(C)C (mixture of isomers) [compound 202]
Test D disease control rating [1, 6]: 0% | Test E disease control rating [2, 6]: 0% | Test A disease control rating [3, 7]: 0% | Test C disease control rating [4, 6]: 53% | Test B disease control rating [5, 6]: 0%

CC(COc1c(C#N)cccc1C(F)(F)F)NC(=O)C(C#N)C(C)(C)C (mixture of isomers) [compound 48]
Test D disease control rating [1, 6]: 0% | Test E disease control rating [2, 6]: 0% | Test A disease control rating [3, 7]: 0% | Test C disease control rating [4, 6]: 91% | Test B disease control rating [5, 6]: 0%

C[C@H](COc1cc(F)c(Cl)cc1F)NC(=O)C(C#N)C(C)(C)C (single isomer, unassigned) [173b]
Test D disease control rating [1, 6]: 91% | Test E disease control rating [2, 6]: 0% | Test A disease control rating [3, 7]: 0% | Test C disease control rating [4, 6]: 90% | Test B disease control rating [5, 6]: 0%

CCC1(C(=O)NC(C)COc2ccccc2C(C)C)C(C)C1(Cl)Cl (stereo not shown) [compound 99]
Test D disease control rating ([1]; tested at 40 ppm): 68% | Test E disease control rating ([2]; tested at 40 ppm): 0% | Test A disease control rating ([3]; tested at 40 ppm): 83% | Test C disease control rating ([4]; tested at 40 ppm): 0% | Test B disease control rating ([5]; tested at 40 ppm): 0%

CCC1(C(=O)NC(C)COn2c(C#N)cc(Cl)c2Cl)C(C)C1(Cl)Cl (mixture of isomers) [compound 139]
Test D disease control rating [1, 6]: 0% | Test E disease control rating [2, 6]: 0% | Test A disease control rating [3, 7]: 71% | Test C disease control rating [4, 6]: 91% | Test B disease control rating [5, 6]: 0%

C[C@H](COc1ccc(Cl)c(F)c1)NC(=O)C(C#N)C(C)(C)C (single isomer, unassigned) [182b]
Test D disease control rating [1, 6]: 0% | Test E disease control rating [2, 6]: 0% | Test A disease control rating [3, 7]: 0% | Test C disease control rating [4, 6]: 94% | Test B disease control rating [5, 6]: 68%

CCC1(C(=O)NCC=Cc2cc(Cl)ccc2Cl)C(C)C1(Cl)Cl (stereo not shown) [compound 163]
Test D disease control rating ([1]; tested at 40 ppm): 42% | Test E disease control rating ([2]; tested at 40 ppm): 0% | Test A disease control rating ([3]; tested at 40 ppm): 0% | Test C disease control rating ([4]; tested at 40 ppm): 52% | Test B disease control rating ([5]; tested at 40 ppm): 0%

CC(CCn1cc(Cl)cc1C#N)NC(=O)C(C#N)C(C)(C)C (mixture of isomers) [compound 53]
Test D disease control rating [1, 6]: 0% | Test E disease control rating [2, 6]: 0% | Test A disease control rating [3, 7]: 0% | Test C disease control rating [4, 6]: 53% | Test B disease control rating [5, 6]: 0%

CCC1(C(=O)NC(C)COc2ccc(C)cc2Cl)C(C)C1(Cl)Cl (stereo not shown) [compound 126]
Test D disease control rating ([1]; tested at 40 ppm): 0% | Test E disease control rating ([2]; tested at 40 ppm): 0% | Test A disease control rating ([3]; tested at 40 ppm): 0% | Test C disease control rating ([4]; tested at 40 ppm): 73% | Test B disease control rating ([5]; tested at 40 ppm): 0%

C=CCc1ccccc1OCC(C)NC(=O)C1(CC)C(C)C1(Cl)Cl (mixture of isomers) [101a]
Test D disease control rating [1, 6]: 46% | Test E disease control rating [2, 6]: 22% | Test A disease control rating [3, 7]: 0% | Test C disease control rating [4, 6]: 0% | Test B disease control rating [5, 6]: 0%

CC(COc1cccc(Br)c1)NC(=O)C(C#N)C(C)(C)C (mixture of isomers) [9a]
Test D disease control rating [1, 6]: 0% | Test E disease control rating [2, 6]: 0% | Test A disease control rating [3, 7]: 0% | Test C disease control rating [4, 6]: 53% | Test B disease control rating [5, 6]: 0%

CC(COc1cc(C(C)(C)C)ccc1C#N)NC(=O)C(C#N)C(C)(C)C (mixture of isomers) [compound 305]
Test D disease control rating (100 = 100% disease control, 0 = no disease control) [1]: 0% | Test E disease control rating (100 = 100% disease control, 0 = no disease control) [2]: 0% | Test A disease control rating (100 = 100% disease control, 0 = no disease control) [3]: 0% | Test C disease control rating (100 = 100% disease control, 0 = no disease control) [4]: 53% | Test B disease control rating (100 = 100% disease control, 0 = no disease control) [5]: 0%

C[C@H](COc1c(F)cc(F)cc1F)NC(=O)C(C#N)C(C)(C)C (single isomer, unassigned) [189b]
Test D disease control rating [1, 6]: 35% | Test E disease control rating [2, 6]: 0% | Test A disease control rating [3, 7]: 0% | Test C disease control rating [4, 6]: 100% | Test B disease control rating [5, 6]: 0%

C=CC(C)(C)C(C#N)C(=O)NC(C)COc1cc(F)ccc1F (mixture of isomers) [compound 214]
Test D disease control rating [1, 6]: 23% | Test E disease control rating [2, 6]: 0% | Test A disease control rating [3, 7]: 0% | Test C disease control rating [4, 6]: 100% | Test B disease control rating [5, 6]: 0%
